In ChEMBL document CHEMBL5380816, “Inclusion of Nitrofurantoin into the Realm of Cancer Chemotherapy via Biology-Oriented Synthesis and Drug Repurposing” (J Med Chem, 2023):
The source made the active and inactive calls. No cut-off for these calls is given here.

What was measured:
Caco-2 [1] = experiment: Induction of apoptosis in human Caco-2 cells assessed as late apoptotic cells by measuring orange to red patch incubated at 0.098 uM for 72 hrs by acridine orange-ethidium bromide dual staining based fluorescence microscopic analysis; type: functional, cell-based
HepG2 [2] = experiment: Anticancer activity against human HepG2 cells assessed as losing contact with neighbouring cells incubated at 0.098uM for 72 hrs by phase contrast inverted microscopic analysis; type: functional, cell-based
HepG2 [3] = experiment: Anticancer activity against human HepG2 cells assessed as smaller cells incubated at 0.098uM for 72 hrs by phase contrast inverted microscopic analysis; type: functional, cell-based
Caco-2 [4] = experiment: Induction of apoptosis in human Caco-2 cells assessed as viable cells incubated at 0.098 uM for 72 hrs by annexin V-FITC based propidium iodide dual staining assay (reference value: 99.89%); type: functional; conditions: read-out: Activity
HeLa [5] = experiment: Anticancer activity against human HeLa cells assessed as round cells incubated at 0.098uM for 72 hrs by phase contrast inverted microscopic analysis; type: functional, cell-based
MCF7 [6] = experiment: Induction of apoptosis in human MCF7 cells assessed as total apoptotic cells incubated at 0.098 uM for 72 hrs by annexin V-FITC based propidium iodide dual staining assay (reference value: 0.04 %); type: functional
Caco-2 [7] = experiment: Anticancer activity against human Caco-2 cells assessed as round cells incubated at 0.098uM for 72 hrs by phase contrast inverted microscopic analysis; type: functional, cell-based
HepG2 [8] = experiment: Induction of apoptosis in human HepG2 cells assessed as early apoptotic cells incubated at 0.098 uM for 72 hrs by annexin V-FITC based propidium iodide dual staining assay (reference value: 1.74%); type: functional
HeLa [9] = experiment: Induction of apoptosis in human HeLa cells assessed as pro-oxidant effect by measuring free radical generation measured at 0.098 uM after 72 hrs; type: functional, cell-based
HeLa [10] = experiment: Anticancer activity against human HeLa cells assessed as cell shrinkage incubated at 0.098uM for 72 hrs by phase contrast inverted microscopic analysis; type: functional, cell-based
HeLa [11] = experiment: Induction of apoptosis in human HeLa cells assessed as caspase3/7 activation at 0.097 uM using caspase-glo 3/7 as substrate relative to control; type: functional
HepG2 [12] = experiment: Anticancer activity against human HepG2 cells assessed as losing contact with neighbouring cells incubated at 0.097uM for 72 hrs by phase contrast inverted microscopic analysis; type: functional, cell-based
MCF7 [13] = experiment: Induction of apoptosis in human MCF7 cells assessed as necrotic cells incubated at 0.097 uM for 72 hrs by annexin V-FITC based propidium iodide dual staining assay (reference value: 0.03%); type: functional
MCF7 [14] = experiment: Anticancer activity against human MCF7 cells assessed as smaller cells incubated at 0.097uM for 72 hrs by phase contrast inverted microscopic analysis; type: functional, cell-based
Caco-2 [15] = experiment: Induction of apoptosis in human Caco-2 cells assessed as total apoptotic cells incubated at 0.097 uM for 72 hrs by annexin V-FITC based propidium iodide dual staining assay (reference value: 0.04 +/- 0.005%); type: functional
MCF7 [16] = experiment: Induction of apoptosis in human MCF7 cells assessed as late apoptotic cells by measuring orange to red patch incubated at 0.097 uM for 72 hrs by acridine orange-ethidium bromide dual staining based fluorescence microscopic analysis; type: functional, cell-based
Caco-2 [17] = experiment: Induction of apoptosis in human Caco-2 cells assessed as late apoptotic cells by measuring orange to red patch incubated at 0.097 uM for 72 hrs by acridine orange-ethidium bromide dual staining based fluorescence microscopic analysis; type: functional, cell-based
Caco-2 [18] = experiment: Induction of apoptosis in human Caco-2 cells assessed as increase in Bax expression level relative to control; type: functional
Caco-2 [19] = experiment: Anticancer activity against human Caco-2 cells assessed as smaller cells incubated at 0.097uM for 72 hrs by phase contrast inverted microscopic analysis; type: functional, cell-based
HeLa [20] = experiment: Induction of apoptosis in human HeLa cells assessed as late apoptotic cells by measuring orange to red patch incubated at 0.11 uM for 72 hrs by acridine orange-ethidium bromide dual staining based fluorescence microscopic analysis; type: functional, cell-based
MCF7 [21] = experiment: Anticancer activity against human MCF7 cells assessed as cell shrinkage incubated at 0.11 uM for 72 hrs by phase contrast inverted microscopic analysis; type: functional, cell-based
HeLa [22] = experiment: Anticancer activity against human HeLa cells assessed as smaller cells incubated at 0.11 uM for 72 hrs by phase contrast inverted microscopic analysis; type: functional, cell-based
dsDNA = experiment: Induction of damage in dsDNA (unknown origin) assessed as DNA disruption by measuring amplitude at 100 uM incubated for 2.5 hrs by EvaGreen based fluorescence plate reader analysis; type: nucleic-acid assay
HeLa [23] = experiment: Anticancer activity against human HeLa cells assessed as absence of normal spindle shape incubated at 0.11 uM for 72 hrs by phase contrast inverted microscopic analysis; type: functional, cell-based
HepG2 [24] = experiment: Anticancer activity against human HepG2 cells assessed as cell shrinkage incubated at 0.11 uM for 72 hrs by phase contrast inverted microscopic analysis; type: functional, cell-based
HeLa [25] = experiment: Induction of apoptosis in human HeLa cells assessed as late apoptotic cells incubated at 0.11 uM for 72 hrs by annexin V-FITC based propidium iodide dual staining assay (reference value: 0%); type: functional
MCF7 [26] = experiment: Induction of DNA damage in human MCF7 cells assessed as reduction of p53 ubiquitination at 5 uM incubated for 24 hrs by Western blot analysis; type: functional, cell-based
HepG2 [27] = experiment: Anticancer activity against human HepG2 cells assessed as round cells incubated at 0.11 uM for 72 hrs by phase contrast inverted microscopic analysis; type: functional, cell-based
MCF7 [28] = experiment: Induction of cell cycle arrest in human MCF7 cells assessed as accumulation of cells at sub-G0/G1 phase incubated for 24 hrs; type: functional, cell-based
Caco-2 [29] = experiment: Induction of oxidative stress in human Caco-2 cells assessed as cell death by measuring redox alteration fluorescence incubated at 0.11 uM for 72 hrs in presence of dihydro dichlorofluorescein diacetate by DCFH-DA based flow cytometric analysis relative to control; type: functional
HeLa [30] = experiment: Anticancer activity against human HeLa cells assessed as losing contact with neighbouring cells incubated at 0.11 uM for 72 hrs by phase contrast inverted microscopic analysis; type: functional, cell-based
HeLa [31] = experiment: Induction of apoptosis in human HeLa cells assessed as early apoptotic cells incubated at 0.11 uM for 72 hrs by annexin V-FITC based propidium iodide dual staining assay (reference value: 2.77%); type: functional
Caco-2 [32] = experiment: Anticancer activity against human Caco-2 cells assessed as losing contact with neighbouring cells incubated at 0.11 uM for 72 hrs by phase contrast inverted microscopic analysis; type: functional, cell-based
Caco-2 [33] = experiment: Anticancer activity against human Caco-2 cells assessed as absence of normal spindle shape incubated at 0.11 uM for 72 hrs by phase contrast inverted microscopic analysis; type: functional, cell-based
Caco-2 [34] = experiment: Induction of apoptosis in human Caco-2 cells assessed as viable cells by measuring green uniform patch incubated at 0.017 uM for 72 hrs by acridine orange-ethidium bromide dual staining based fluorescence microscopic analysis; type: functional, cell-based
MCF7 [35] = experiment: Induction of apoptosis in human MCF7 cells assessed as total apoptotic cells incubated at 0.017 uM for 72 hrs by annexin V-FITC based propidium iodide dual staining assay (reference value: 0.04 %); type: functional
HepG2 [36] = experiment: Induction of oxidative stress in human HepG2 cells assessed as cell death by measuring redox alteration fluorescence incubated at 0.017 uM for 72 hrs in presence of dihydro dichlorofluorescein diacetate by DCFH-DA based flow cytometric analysis relative to control; type: functional
HeLa [37] = experiment: Induction of apoptosis in human HeLa cells assessed as late apoptotic cells incubated at 0.017 uM for 72 hrs by annexin V-FITC based propidium iodide dual staining assay (reference value: 0%); type: functional

SMILES: O=C(CN1C(=O)CN(/N=C/c2ccc([N+](=O)[O-])o2)C1=O)c1ccc(Cl)cc1
- Activity (Caco-2 [1]): Active
- Activity (HepG2 [2]): Active
- Activity (HepG2 [3]): Active
- viability at 0.098 µM (Caco-2 [4]): 60.6%
- Activity (HeLa [5]): Active
- Activity (MCF7 [6]): 41.73%
- Activity (Caco-2 [7]): Active
- Activity (HepG2 [8]): 6.31%
- Activity (HeLa [9]): Active
- Activity (HeLa [10]): Active

SMILES: NS(=O)(=O)c1ccc(-n2cc(CN3C(=O)CN(/N=C/c4ccc([N+](=O)[O-])o4)C3=O)nn2)cc1
- Activity (HeLa [11]): 58%
- Activity (HepG2 [12]): Active
- Activity (MCF7 [13]): 0.6%
- Activity (MCF7 [14]): Active
- Activity (Caco-2 [15]): 36.26%
- Activity (MCF7 [16]): Active
- Activity (Caco-2 [17]): Active
- Activity (Caco-2 [18]): 300%
- Activity (Caco-2 [19]): Active

SMILES: C#CCN1C(=O)CN(/N=C/c2ccc([N+](=O)[O-])o2)C1=O
- Activity (HeLa [20]): Active
- Activity (MCF7 [21]): Active
- Activity (HeLa [22]): Active
- Activity (dsDNA): 177
- Activity (HeLa [23]): Active
- Activity (HepG2 [24]): Active
- Activity (HeLa [25]): 22.69%
- Activity (MCF7 [26]): Active
- Activity (HepG2 [27]): Active
- Activity (MCF7 [28]): Active
- Activity (Caco-2 [29]): 45.56%
- Activity (HeLa [30]): Active
- Activity (HeLa [31]): 9.44%
- Activity (Caco-2 [32]): Active
- Activity (Caco-2 [33]): Active

SMILES: O=c1[nH]cc(F)c(=O)[nH]1 [FLUOROURACIL]
- Activity (Caco-2 [34]): Active
- Activity (MCF7 [35]): 2.94%
- Activity (HepG2 [36]): 4.78%
- Activity (HeLa [37]): 3.4%
